Non-standard residues stand in square brackets, D forms with d. Residues, ends and D or L forms follow the SMILES beside them. *: point of attachment. Desaminotyrosyl = O=C(CCc1ccc(O)cc1)*; NMeY = CN[C@@H](Cc1ccc(O)cc1)C(=O)O; Agmatine = N=C(N)NCCCCN*; Nle = CCCC[C@H](N)C(=O)O; Orn = NCCC[C@H](N)C(=O)O; Abu = CC[C@H](N)C(=O)O
Columns and labels:
GHRH receptor = molecular target: T1, GHRH receptor (Homo sapiens, UniProt Q02643); assay: GHRH receptor binding, competition with 125I-labeled [His1,Nle27]hGHRH(1-32)NH2, human pituitary membrane homogenates (Table 6); design: Normal human pituitaries were purchased from the National Hormone and Peptide Program; tissue National Hormone and Peptide Program (A.F. Parlow, Harbor-UCLA Medical Center, Torrance, Calif.); host or cells: normal human pituitary, membrane fraction
T1 sequence (Q02643 23-423): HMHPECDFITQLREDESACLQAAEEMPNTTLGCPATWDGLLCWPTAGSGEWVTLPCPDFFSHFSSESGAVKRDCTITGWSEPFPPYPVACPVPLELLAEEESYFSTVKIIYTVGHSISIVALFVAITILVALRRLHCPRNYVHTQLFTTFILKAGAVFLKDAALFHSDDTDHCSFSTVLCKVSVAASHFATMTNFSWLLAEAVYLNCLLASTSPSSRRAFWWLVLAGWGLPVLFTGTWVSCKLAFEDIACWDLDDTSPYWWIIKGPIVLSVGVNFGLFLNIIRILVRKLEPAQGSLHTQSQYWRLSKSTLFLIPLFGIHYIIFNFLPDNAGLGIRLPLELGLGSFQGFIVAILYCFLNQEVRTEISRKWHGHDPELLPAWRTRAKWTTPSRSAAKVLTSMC
Excerpt: Normal human pituitaries were purchased from the National Hormone and Peptide Program (A.F. Parlow, Los Angeles, County Harbor-UCLA Medical Center, Torrance, Calif.).

[1] = test system: superfused rat pituitary cells; assay: GH release in superfused rat pituitary cell system (Table 4); type: cell-based; settings: 1 nM; for GH Response (ng/ml), column 1: replicate 1; for GH Response (ng/ml), column 2: replicate 2; for GH Response (ng/ml), column 3: replicate 3
Protocol: Growth hormone releasing activity. Growth hormone releasing was assayed by using a superfused rat pituitary cell system as described in S. Vigh and A. V. Schally, Peptides 5, Suppl: 241-347, 1984. The new synthetic peptide analog of hGHRH P20356 and JI-38 (as control) were administered for 3 minutes (1 mL perfusate) at 1 nM concentration as shown below. Fractions of 1 ml are collected and the GH content in each was determined by ELISA.
Pituitary cells from 2 male rats were used for each channel of the superfusion system. The cells were exposed to 3-min pulses of the new GHRH agonists or to JI-38 as standard every 30 min. Outflowing samples of each channel (1 ml) were collected every 3 min, and GH levels were determined by ELISA.

[2] = fraction 1 (P-20356)/21 (JI-38)
[3] = fraction 2 (P-20356)/22 (JI-38)
[4] = fraction 3 (P-20356)/23 (JI-38)
[5] = fraction 4 (P-20356)/24 (JI-38)
[6] = fraction 5 (P-20356)/25 (JI-38)

Row | Structure (SMILES) | GH Response (ng/ml), Average [1, 2] [ng/mL] | GH Response (ng/ml), column 1 [1, 2] [ng/mL] | GH Response (ng/ml), column 2 [1, 2] [ng/mL] | GH Response (ng/ml), Average [1, 3] [ng/mL] | GH Response (ng/ml), column 1 [1, 3] [ng/mL] | GH Response (ng/ml), column 2 [1, 3] [ng/mL] | GH Response (ng/ml), Average [1, 4] [ng/mL] | GH Response (ng/ml), column 1 [1, 4] [ng/mL] | GH Response (ng/ml), column 2 [1, 4] [ng/mL] | GH Response (ng/ml), Average [1, 5] [ng/mL] | GH Response (ng/ml), column 1 [1, 5] [ng/mL] | GH Response (ng/ml), column 2 [1, 5] [ng/mL] | GH Response (ng/ml), Average [1, 6] [ng/mL] | GH Response (ng/ml), column 1 [1, 6] [ng/mL] | GH Response (ng/ml), column 2 [1, 6] [ng/mL] | also measured
1 | CCCC[C@H](NC(=O)[C@@H](NC(=O)[C@H](CC(=O)O)NC(=O)[C@H](CCC(N)=O)NC(=O)[C@H](CC(C)C)NC(=O)[C@H](CC(C)C)NC(=O)[C@H](CCCN)NC(=O)[C@H](CCCNC(=N)N)NC(=O)[C@H](C)NC(=O)[C@H](CO)NC(=O)[C@H](CC(C)C)NC(=O)[C@H](CCC(N)=O)NC(=O)[C@H](CC)NC(=O)[C@H](CC(C)C)NC(=O)[C@@H](NC(=O)[C@H](CCCN)NC(=O)[C@H](CCCNC(=N)N)NC(=O)[C@H](Cc1ccc(O)cc1)NC(=O)[C@H](CO)NC(=O)[C@H](CCC(N)=O)NC(=O)[C@@H](NC(=O)[C@H](Cc1ccccc1)NC(=O)[C@@H](NC(=O)[C@H](C)NC(=O)[C@H](CC(=O)O)NC(=O)[C@H](C)NC(=O)CCc1ccc(O)cc1)[C@@H](C)CC)[C@@H](C)O)C(C)C)[C@@H](C)CC)C(=O)N[C@@H](CC(=O)O)C(=O)NCCCCNC(=N)N [JI-38, [Dat^1, Gln^8, Orn^12,21, Abu^15, Nle^27, Asp^28, Agm^29]hGHRH(1-29)NH2, reference compound] (Desaminotyrosyl-ADAIFTQSYR[Orn]VL[Abu]QLSAR[Orn]LLQDI[Nle]D-Agmatine) | 49.27 | 42.46 | 56.07 | 131.71 | 143.58 | 119.83 | 194.68 | 222.13 | 167.23 | 137.45 | 142.96 | 131.93 | 96.70 | 96.34 | 97.05 | IC50 (GHRH receptor; 125I-[His1,Nle27]hGHRH(1-32)NH2, human pituitary membranes, Table 6): 1.95 nM; Relative affinity (Binding potency) vs GHRH (GHRH receptor; GHRH(1-29) = 1, Table 6): 3.03; Relative affinity (Binding potency) vs JI-38 (GHRH receptor; JI-38 = 1, Table 6): 1
2 | CCCC[C@H](NC(=O)[C@@H](NC(=O)[C@H](CC(=O)O)NC(=O)[C@H](CCC(N)=O)NC(=O)[C@H](CC(C)C)NC(=O)[C@H](CC(C)C)NC(=O)[C@H](CCCN)NC(=O)[C@H](CCCNC(=N)N)NC(=O)[C@H](C)NC(=O)[C@H](CO)NC(=O)[C@H](CC(C)C)NC(=O)[C@H](CCC(N)=O)NC(=O)[C@H](CC)NC(=O)[C@H](CC(C)C)NC(=O)[C@@H](NC(=O)[C@H](CCCN)NC(=O)[C@H](CCCNC(=N)N)NC(=O)[C@H](Cc1ccc(O)cc1)NC(=O)[C@H](CO)NC(=O)[C@H](CCC(N)=O)NC(=O)[C@@H](NC(=O)[C@H](Cc1ccccc1)NC(=O)[C@@H](NC(=O)[C@H](C)NC(=O)[C@H](CC(=O)O)NC(=O)[C@H](C)NC(=O)[C@H](Cc1ccc(O)cc1)NC)[C@@H](C)CC)[C@@H](C)O)C(C)C)[C@@H](C)CC)C(=O)N[C@@H](CC(=O)O)C(=O)NCCCCNC(=N)N [Peptide P-20356, [N—Me-Tyr^1, Gln^8, Orn^12, Abu^15, Orn^21, Nle^27, Asp^28, Agm^29]hGHRH(1-29) NH2] (H-[NMeY]ADAIFTQSYR[Orn]VL[Abu]QLSAR[Orn]LLQDI[Nle]D-Agmatine) | 52.45 | 49.98 | 54.99 | 337.48 | 310.58 | 325.76 | 556.46 | 491.01 | 602.1 | 334.99 | 399.95 | 270.02 | 197.91 | 200.64 | 195.18 | GH-releasing potency in vitro, times more potent than JI-38 ([1]; superfused rat pituitary cells): about 3; GH Response (ng/ml), column 3 [1, 2]: 52.37 ng/mL; GH Response (ng/ml), column 3 [1, 3]: 376.11 ng/mL; GH Response (ng/ml), column 3 [1, 4]: 576.26 ng/mL

— US10555987B2, “GHRH agonists for the treatment of ischemic disorders” (UNIVERSITY OF MIAMI, priority 2012, dated 2020)
